In patent publication US20260224582A1, “Heterobicyclic amides as inhibitors of CD38” (Cerevance, Inc., priority 2022, published 2026):

How the values were obtained:
[1] = biological target: T1, Recombinant mouse CD38 (Mus musculus, UniProt P56528); experiment: Mouse CD38 hydrolase assay (fluorescence-based, ε-NAD substrate); format: biochemical; settings: recombinant mouse CD38 0.4 nM, 12 μM ε-NAD, 30 min preincubation at 25° C.
T1 sequence (P56528 1-304): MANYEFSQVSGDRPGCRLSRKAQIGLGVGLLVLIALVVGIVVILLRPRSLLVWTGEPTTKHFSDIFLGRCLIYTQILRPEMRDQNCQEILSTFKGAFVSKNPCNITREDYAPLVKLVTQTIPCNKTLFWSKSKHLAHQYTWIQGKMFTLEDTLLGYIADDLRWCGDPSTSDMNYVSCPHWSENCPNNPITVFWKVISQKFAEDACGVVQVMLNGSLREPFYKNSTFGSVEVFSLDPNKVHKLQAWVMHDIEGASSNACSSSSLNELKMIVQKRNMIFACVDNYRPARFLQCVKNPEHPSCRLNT
Summary of the method: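 Recombinant mouse CD38 (0.4 nM) preincubated with compound 30 min at 25° C in PBS without Ca/Mg, 0.005% BSA, pH 7.4, then 12 μM ε-NAD added. Fluorescence (ex 300/em 410 nm) read at 0 and 6 min, difference used. IC50 from 10-point half-log curve, four-parameter fit, normalised to tool-inhibitor low control.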

[2] = Tissue binding assay (equilibrium dialysis), brain homogenate; format: in vitro ADME; settings: mouse brain homogenate, dialysis 4 hours at 37° C., pH 7.4
Experimental: Buffer preparation. A basic solution was prepared by dissolving 14.2 g/L Na2HPO4 and 8.77 g/L NaCl in deionized H2O. An acidic solution was prepared by dissolving 15.6 g/L NaH2PO4·2H2O and 8.77 g/L NaCl in deionized H2O. Using the acidic solution, the basic solution was then titrated to pH 7.4±0.1 and stored at 4° C. for up to 1 month. The stop solution was 100% CH3CN containing 200 ng/ml tolbutamide, 200 ng/ml labetalol and 50 ng/ml metformin.
Test method. Dialysis membrane strips were soaked in ultra-pure water at room temperature for ~1 hour. Each membrane strip containing 2 membranes was separated and soaked in 20:80 EtOH/H2O (v/v) for ~20 min, after which they were ready for use or were stored in the solution at 2-8° C. for up to 1 month. Prior to the experiment, the membrane was rinsed and soaked for 20 min in ultra-pure water. On the day of experiment, brain homogenate was thawed in a water bath at room temperature and incubated at 37° C. for 10 min before use. Test and control compounds were dissolved in DMSO to achieve 10 mM stock solutions. DMSO working solutions were prepared at 400 μM by diluting 10 μL of stock solution. To prepare the time zero (t=0) samples to be used for recovery determination, 50 μL aliquots of loading matrix were transferred in triplicate to the sample collection plate. The samples were immediately matched with opposite blank buffer to obtain a final volume of 100 μL of 1:1 matrix/dialysis buffer (v/v) in each well. 500 μL of stop solution were added to these t=0 samples. They were then stored at 2-8° C. pending further processes along with other post-dialysis samples. To load the dialysis device, an aliquot of 150 μL of the loading matrix was transferred to the donor side of each dialysis well in triplicate, and 150 μL of the dialysis buffer was loaded to the receiver side of the well. The dialysis plate was placed in a humidified incubator at 37° C. with 5% CO2 on a shaking platform that rotated slowly (about 100 rpm) for 4 hours. At the end of the dialysis, aliquots of 50 μL of samples were taken from both the buffer side and the matrix side of the dialysis device. These samples were transferred into new 96-well plates. Each sample was mixed with an equal volume of opposite blank matrix (buffer or matrix) to reach a final volume of 100 μL of 1:1 matrix/dialysis buffer (v/v) in each well. All samples were further processed by adding 500 μL of stop solution containing internal standards. The mixture was vortexed and centrifuged at 4000 rpm for about 20 min. An aliquot of 100 μL of supernatant of all the samples was then removed for LC-MS/MS analysis. The single blank samples were prepared by transferring 50 μL of blank matrix to a 96-well plate and adding 50 μL of blank PBS buffer to each well. Then the matrix-matched samples were further processed by adding 500 μL of stop solution containing internal standards, following the same sample processing method as the dialysis samples.
Data analysis. The % undiluted unbound, % undiluted bound and % recovery were calculated using the following equations: […]
where F is the analyte concentration or peak area ratio of analyte/internal standard on the buffer (receiver) side of the membrane; T is the analyte concentration or peak area ratio of analyte/internal standard on the matrix (donor) side of the membrane; To is the analyte concentration or the peak area ratio of analyte/internal standard in the loading matrix sample at time zero; and D is the dilution factor determined as 4 in this assay.

O=C(N[C@H]1CC[C@H](N2CCC(F)(F)C2)CC1)c1cn2ncnc2c(-n2ccnc2)n1 [Example 48, N-((1r,4r)-4-(3,3-difluoropyrrolidin-1-yl)cyclohexyl)-8-(1H-imidazol-1-yl)-[1,2,4]triazolo[1,5-a]pyrazine-6-carboxamide]
IC50 [1]: ≤ 0.04 µM
fraction unbound at 4 h [2]: 0.15

O=C(N[C@H]1CC[C@H](N2CC(F)(F)C2)CC1)c1cn2ncnc2c(-n2ccnc2)n1 [Example 45, N-((1r,4r)-4-(3,3-difluoroazetidin-1-yl)cyclohexyl)-8-(1H-imidazol-1-yl)-[1,2,4]triazolo[1,5-a]pyrazine-6-carboxamide]
IC50 [1]: ≤ 0.04 µM
fraction unbound at 4 h [2]: 0.15

O=C(N[C@H]1CC[C@H](NCC(F)(F)F)CC1)c1nc(-n2ccnc2)nn2cccc12 [Example 29, 2-(1H-imidazol-1-yl)-N-((1r,4r)-4-((2,2,2-trifluoroethyl)amino)cyclohexyl)pyrrolo[2,1-f][1,2,4]triazine-4-carboxamide]
IC50 [1]: ≤ 0.04 µM
fraction unbound at 4 h [2]: 0.064

O=C(N[C@H]1CC[C@H](NCC(F)(F)F)CC1)c1nc(-n2ccnc2)nc2ncccc12 [Example 4, 2-(1H-imidazol-1-yl)-N-((1r,4r)-4-((2,2,2-trifluoroethyl)amino)cyclohexyl)pyrido[2,3-d]pyrimidine-4-carboxamide]
IC50 [1]: ≤ 0.04 µM
fraction unbound at 4 h [2]: 0.41

O=C(N[C@H]1CC[C@H](NCC(F)(F)F)CC1)c1cn2ccnc2c(-n2ccnc2)n1 [Example 19, 8-(1H-imidazol-1-yl)-N-((1r,4r)-4-((2,2,2-trifluoroethyl)amino)cyclohexyl) imidazo[1,2-a]pyrazine-6-carboxamide]
IC50 [1]: ≤ 0.04 µM
fraction unbound at 4 h [2]: 0.25

O=C(N[C@H]1CC[C@H](N2CC[C@H](F)C2)CC1)c1nc(-n2ccnc2)nn2cccc12 [Example 13, N-((1S,4r)-4-((S)-3-fluoropyrrolidin-1-yl)cyclohexyl)-2-(1H-imidazol-1-yl)pyrrolo[2,1-f][1,2,4]triazine-4-carboxamide]
IC50 [1]: ≤ 0.04 µM
fraction unbound at 4 h [2]: 0.056

O=C(N[C@H]1CC[C@H](N2CCC(F)(F)C2)CC1)c1nc(-n2ccnc2)nn2cccc12 [Example 12, N-((1r,4r)-4-(3,3-difluoropyrrolidin-1-yl)cyclohexyl)-2-(1H-imidazol-1-yl)pyrrolo[2,1-f][1,2,4]triazine-4-carboxamide]
IC50 [1]: ≤ 0.04 µM
fraction unbound at 4 h [2]: 0.068

O=C(N[C@H]1CC[C@H](N2CC[C@@H](F)C2)CC1)c1nc(-n2ccnc2)nn2cccc12 [Example 14, N-((1R,4r)-4-((R)-3-fluoropyrrolidin-1-yl)cyclohexyl)-2-(1H-imidazol-1-yl)pyrrolo[2,1-f][1,2,4]triazine-4-carboxamide]
IC50 [1]: ≤ 0.04 µM
fraction unbound at 4 h [2]: 0.056

O=C(N[C@H]1CC[C@H](N2CCC(F)(F)C2)CC1)c1cn2ccnc2c(-n2ccnc2)n1 [Example 41, N-((1r,4r)-4-(3,3-difluoropyrrolidin-1-yl)cyclohexyl)-8-(1H-imidazol-1-yl) imidazo[1,2-a]pyrazine-6-carboxamide]
IC50 [1]: ≤ 0.04 µM
fraction unbound at 4 h [2]: 0.15

O=C(N[C@H]1CC[C@H](NCC(F)(F)F)CC1)c1cn2nccc2c(-n2ccnc2)n1 [Example 21, 4-(1H-imidazol-1-yl)-N-((1r,4r)-4-((2,2,2-trifluoroethyl)amino)cyclohexyl)pyrazolo[1,5-a]pyrazine-6-carboxamide]
IC50 [1]: ≤ 0.04 µM
fraction unbound at 4 h [2]: 0.34

O=C(N[C@H]1CC[C@H](NCC(F)(F)F)CC1)c1cn2ncnc2c(-n2ccnc2)n1 [Example 20, 8-(1H-imidazol-1-yl)-N-((1r,4r)-4-((2,2,2-trifluoroethyl)amino)cyclohexyl)-[1,2,4]triazolo[1,5-a]pyrazine-6-carboxamide]
IC50 [1]: ≤ 0.04 µM
fraction unbound at 4 h [2]: 0.34
